Results taken from patent US20230250145A1, “COMPOSITIONS AND METHODS FOR THE TREATMENT OF CANCER” (MOMA Therapeutics, Inc., priority 2020, published 2023).

Tests used:
[1] = test system: FANCM protein; assay: Western blot of FANCM protein levels; format: cell-based; settings: cells treated with CRISPR RNP sgRNA (FIG. 4B)
Procedure: Cells were plated for all conditions at a necessary density for analysis (1×10^7 cells per/reaction for nuclear isolation). Following treatment, cells were washed with PBS and trypsinized with TrypLE until loss of adherence. Cells were collected in a 15 mL falcon tube and spun down into a pellet at 1,000 RPM×5 minutes. The supernatant is aspirated and pellets were then placed into downstream protocol (NE-PER cell fractionation kit protocol as provided by vendor). Samples were run on 3-8% Bis-tris gels (Thermo fisher Cat #EA0375PK2) for 45 minutes @ 200 v. […] Membranes were stained overnight at 4 degrees with appropriate antibodies.
FANCM: Anti-FANCM Antibody, clone CV5.1 (MABC545) 1:1000 dilution
Lamin B: Recombinant Anti-Lamin B1 antibody [EPR8985(B)] (ab133741) 1:2000 dilution

[2] = test system: FANCM mRNA transcript in UWB1.289; assay: qPCR of FANCM mRNA expression after doxycycline induced shRNA; format: cell-based; settings: three days of doxycycline treatment
Excerpt: All shRNAs were cloned into pLKO-tet-on vector, packaged into lentivirus and titered for each cell line for an MOI <0.7.

Row | Substance | FANCM protein expression (Western blot) [1] | FANCM mRNA transcripts (qPCR) [2]
1 | FANCM sgRNA #3: sgRNA targeting the FANCM locus, SEQ ID NO: 69, CATGACCACGGCGGCAATAA (synthetic chemically modified sgRNA (Synthego EZ kit), pattern not given here) | loss of FANCM protein expression | 
2 | FANCM sgRNA #4: sgRNA targeting the FANCM locus, SEQ ID NO: 70, AAAGACCTTTATTGCCGCCG (synthetic chemically modified sgRNA (Synthego EZ kit), pattern not given here) | loss of FANCM protein expression | 
3 | shRNA #1307: doxycycline-inducible shRNA targeting FANCM, SEQ ID NO: 77, GACTTCATGAAACTCTATAAT |  | loss of FANCM mRNA transcripts
4 | shRNA #1858: doxycycline-inducible shRNA targeting FANCM, SEQ ID NO: 78, AGGACGAGAGGAACGTATTTA |  | loss of FANCM mRNA transcripts
